This passage reports IC50 results from patent US20260200897A1, “4-((5-(3-(4-(PYRIDIN-2-YL)CYCLOPENTYL)-1H-PYRAZOL-3-YL)AMINO)-BENZENESULFONAMIDE DERIVATIVES AND SIMILAR COMPOUNDS AS CDK INHIBITORS FOR THE TREATMENT OF CANCER” (BeOne Medicines I GmbH, priority 2023, published 2026).

Usually pIC50 stands for the negative decadic logarithm of the IC50, by convention in mol/L. Read a low pIC50 as a large IC50.

The structures appear in SMILES notation. pIC50: −log10 of the molar value.

In one assay the target is CDK2/Cyclin E1 (Homo sapiens, UniProt P24941). The experiment in a line: CDK2/Cyclin E1 TR-FRET biochemical assay, 0.060 mM ATP. To be noted: 0.15 μM Rb (Ser780)-biotin substrate, 120 min reaction, Table 1. (Time-resolved FRET reads energy transfer from a long-lived donor to a nearby acceptor.)
The next assay deals with CDK1/Cyclin B1 (Homo sapiens, UniProt P06493). Nature of the assay: CDK1/Cyclin B1 TR-FRET biochemical assay, 0.015 mM ATP. The following applies: 0.15 μM Rb (Ser780)-biotin substrate, 120 min reaction, Table 1.
Chain of CDK1/Cyclin B1 (P06493 whole entry): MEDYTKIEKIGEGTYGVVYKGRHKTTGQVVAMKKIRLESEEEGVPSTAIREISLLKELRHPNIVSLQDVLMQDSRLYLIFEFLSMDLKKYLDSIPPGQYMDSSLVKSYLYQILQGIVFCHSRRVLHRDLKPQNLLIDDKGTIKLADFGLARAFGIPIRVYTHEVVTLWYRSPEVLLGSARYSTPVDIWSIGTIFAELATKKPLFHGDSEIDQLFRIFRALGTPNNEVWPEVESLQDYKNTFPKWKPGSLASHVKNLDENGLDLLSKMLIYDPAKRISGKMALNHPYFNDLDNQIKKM
Chain of CDK1/Cyclin B1 (P14635 whole entry partner): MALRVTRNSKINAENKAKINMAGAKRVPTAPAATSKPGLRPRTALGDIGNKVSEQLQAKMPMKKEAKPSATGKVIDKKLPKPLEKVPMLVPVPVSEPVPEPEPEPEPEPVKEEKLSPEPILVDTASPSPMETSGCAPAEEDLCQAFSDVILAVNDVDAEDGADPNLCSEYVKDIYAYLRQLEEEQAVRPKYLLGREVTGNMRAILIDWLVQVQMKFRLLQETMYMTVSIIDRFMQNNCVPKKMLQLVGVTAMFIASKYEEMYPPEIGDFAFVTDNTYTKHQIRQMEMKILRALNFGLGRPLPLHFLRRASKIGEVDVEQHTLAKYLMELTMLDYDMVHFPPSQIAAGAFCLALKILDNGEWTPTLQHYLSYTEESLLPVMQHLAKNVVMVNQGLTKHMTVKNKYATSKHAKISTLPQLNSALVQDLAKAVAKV

Turning to `CC1(C)NC(=O)N(C2CCC(c3cc(Nc4ccc5c(c4F)CNS5(=O)=O)n[nH]3)C2)C1=O` (single isomer, unassigned) [Example 84a, cis-3-(3-(3-((4-fluoro-1,1-dioxido-2,3-dihydrobenzo[d]isothiazol-5-yl)amino)-1H-pyrazol-5-yl)cyclopentyl)-5,5-dimethylimidazolidine-2,4-dione], the pIC50 on CDK2/Cyclin E1 is 8.12; on CDK1/Cyclin B1, 6.63.
As to `O=S1(=O)NCc2c1ccc(Nc1cc([C@H]3CC[C@@H](Oc4ccccn4)C3)[nH]n1)c2F` (relative stereo) [Example 46, cis-4-fluoro-5-((5-(3-(pyridin-2-yloxy)cyclopentyl)-1H-pyrazol-3-yl)amino)-2,3-dihydrobenzo[d]isothiazole 1,1-dioxide], the pIC50 at CDK2/Cyclin E1 was 6.38; against CDK1/Cyclin B1, 5.13.
In the same order, the values of `Cc1n[nH]c(C)c1O[C@@H]1CC[C@H](c2cc(Nc3ccc4c(c3F)CNS4(=O)=O)n[nH]2)C1` (relative stereo) [Example 75, cis-5-((5-(3-((3,5-dimethyl-1H-pyrazol-4-yl)oxy)cyclopentyl)-1H-pyrazol-3-yl)amino)-4-fluoro-2,3-dihydrobenzo[d]isothiazole 1,1-dioxide] are 7.28 and 5.97.
In the same order, the values of `CCOC(=O)c1cn[nH]c1O[C@H]1CC[C@@H](c2cc(Nc3ccc4c(c3F)CNS4(=O)=O)n[nH]2)C1` (relative stereo) [Example 68, cis-ethyl 5-((3-(3-((4-fluoro-1,1-dioxido-2,3-dihydrobenzo[d]isothiazol-5-yl)amino)-1H-pyrazol-5-yl)cyclopentyl)oxy)-1H-pyrazole-4-carboxylate] are 7.92 and 6.70.
In the same order, the values of `CCc1cnc(C2CCC(c3cc(Nc4ccc5c(c4F)CNS5(=O)=O)n[nH]3)C2)o1` (stereo not drawn) [Example 92, 5-((5-(3-(5-ethyloxazol-2-yl)cyclopentyl)-1H-pyrazol-3-yl)amino)-4-fluoro-2,3-dihydrobenzo[d]isothiazole 1,1-dioxide] are 7.68 and 6.29.
With `O=S1(=O)NCc2c1ccc(Nc1cc([C@H]3CC[C@@H](Oc4n[nH]c5ccccc45)C3)[nH]n1)c2F` (relative stereo) [Example 67, cis-5-((5-(3-((1H-indazol-3-yl)oxy)cyclopentyl)-1H-pyrazol-3-yl)amino)-4-fluoro-2,3-dihydrobenzo[d]isothiazole 1,1-dioxide], the figures for the negative-log IC50 (pIC50) at CDK2/Cyclin E1 and at CDK1/Cyclin B1 were 7.27 and 5.67, respectively.
For `CC(C)(C)c1n[nH]cc1OC1CCC(c2cc(Nc3ccc4c(c3F)CNS4(=O)=O)n[nH]2)C1` (single isomer, unassigned) [Example 74a, cis-5-((5-(3-((3-(tert-butyl)-1H-pyrazol-4-yl)oxy)cyclopentyl)-1H-pyrazol-3-yl)amino)-4-fluoro-2,3-dihydrobenzo[d]isothiazole 1,1-dioxide] the same measures were 8.31 and 6.52.
In the same order, the values of `O=S1(=O)NCc2c1ccc(Nc1cc([C@H]3CC[C@@H](Oc4nnccc4C4CC4)C3)[nH]n1)c2F` (relative stereo) [Example 29, cis-5-((5-(3-((4-cyclopropylpyridazin-3-yl)oxy)cyclopentyl)-1H-pyrazol-3-yl)amino)-4-fluoro-2,3-dihydrobenzo[d]isothiazole 1,1-dioxide] are 8.54 and 7.46.
For `O=c1ccsn1[C@H]1CC[C@@H](c2cc(Nc3ccc4c(c3F)CNS4(=O)=O)n[nH]2)C1` (relative stereo) [Example 51, cis-2-(3-(3-((4-fluoro-1,1-dioxido-2,3-dihydrobenzo[d]isothiazol-5-yl)amino)-1H-pyrazol-5-yl)cyclopentyl)isothiazol-3 (2H)-one] the same measures were 6.67 and 5.75.
